# Assays:
# [1] = test system: OXS-OXCMe-Y497A-YciA cascade; format: biochemical; settings: 25 mM aldehyde, 10 mM disodium oxalate, 10 mM ATP, OXS 5 μM, OXCMe-Y497A 5 μM, YciA 2 μM; chiral HPLC
# Method: Samples were diluted 1:10 in H2O. UPLC-high resolution MS analyses were performed on an Agilent 6550 iFunnel QTOF LC/MS system equipped with an electrospray ionization source to negative ionization mode. The analytes were isocratically chromatographed on a chiral column (100 mm×2.1 mm, particle size 2.7 μm, Poroshell 120 Chiral-T, Agilent) kept at ambient temperature using a mobile phase system comprised of 30:70 20 mM ammonium formate pH 4/methanol at a flow rate of 250 μl/min for 10 min. Samples were held at 10° C. and injection volume was 1 μl. […] MS data were acquired with a scan range of 100-1100 m/z. For quantification the calculated m/z value of [M-H]^− was used to obtain the extracted ion count from the total ion count.
# 0.5 mM ADP, 0.15 mM ThDP, 0.5 mM CoA, 10 mM ATP, 25 mM benzaldehyde, 5 μM OXS, 5 μM OXC and 2 μM YciA. The reaction was started by adding 10 mM oxalate. As negative controls, YciA, OXS or OXC were omitted in separate reactions. Samples were taken after 0, 0.05, 0.25, 0.66, 1, 2, 3, 22 hours and analyzed with the LC-MS detection of mandelic acid derivatives.
# The aldehyde substrate screen of the OXS-OXCMe-Y497A-YciA cascade was carried out as described above (example 13), except that the aromatic aldehydes were prepared as 33 mM stocks in 20 vol % DMSO and diluted to final concentration of 25 mM into the assay. Samples were analyzed with the mandelic acid derivatives method described above. Mandelic acid (3a), 4-chloromandelic acid (3c), 2-chloromandelic acid (3d) and 3-phenyllactic acid (3b) were quantified by comparison to commercial standards.
# [2] = test system: OXS-OXCMe-YciA cascade with FRC; experiment: OXS-OXCMe-Y497A-YciA cascade with FRC (α-hydroxy carboxylic acid from oxalate, one pot); format: biochemical; settings: 2 μM FRC, 7.6 mM benzaldehyde or phenylacetaldehyde, 10 μM OXCMe-Y497A
# Method: 0.5 mM ADP, 0.15 mM ThDP, 0.5 mM CoA, 10 mM ATP, 7.6 mM benzaldehyde or phenylacetaldehyde, 2 μM FRC, 2 μM YciA, 10 μM OXCMe-Y497A and 5 μM OXS. The reaction was started by adding 10 mM disodium oxalate. Samples were taken after 0, 15, 30, 60 min and analyzed with the mandelic acid derivatives method described above.
# 0.5 mM ADP, 0.15 mM ThDP, 0.5 mM CoA, 10 mM ATP, 7.6 mM benzaldehyde or phenylacetaldehyde, 2 μM FRC (Formyl-CoA:oxalate CoA-transferase from Oxalobacter formigenes EC 2.8.3.16), 2 μM YciA, 10 μM OXCMe-Y497A and 5 μM OXS were mixed and the reaction was initiated by the addition of 10 mM disodium oxalate. For the negative control FRC was omitted in a separate reaction. Samples were taken after 0, 15, 30, 60 min and analyzed with the mandelic acid derivatives method described above.
# HACLHs = target: T1, HACLHs (Homo sapiens, UniProt Q9UJ83); experiment: Aldehyde and ketone screen with HACLHs (carboligation with formyl-CoA, LC-MS of CoA esters); format: biochemical; settings: 10 mM aldehyde, 1 mM formyl-CoA, 5 μM enzyme, 1 h, relative to the comparison of OXC and HACL, n.d. = product not detected
# T1 construct: His-tag (from vector pET-16b); made in house; host or cells: E. coli ArcticExpress (DE3)
# Method: Samples were diluted 1:10 in H2O. […] Standard injection volume was 1 μl.
# 0.5 mM ADP, 0.15 mM ThDP.
# OXCMe = OXCMe aldehyde and ketone screen (carboligation with formyl-CoA, LC-MS of CoA esters); settings: 10 mM aldehyde, 1 mM formyl-CoA, 5 μM enzyme, 1 h, relative to the comparison of OXC and HACL, n.d. = product not detected
# Method: Samples were diluted 1:10 in H2O. UPLC-high resolution MS of CoA esters was performed as described previously.^[5] CoA esters were analyzed using an Agilent 6550 iFunnel Q-TOF LC-MS system equipped with an electrospray ionization source set to positive ionization mode. Compounds were separated on a RP-18 column (50 mm×2.1 mm, particle size 1.7 μm, Kinetex EVO C18, Phenomenex) using a mobile phase system comprised of 50 mM ammonium formate pH 8.1 (A) and methanol (B). Chromatographic separation was carried out using the following gradient condition at a flow rate of 250 μl/min: 0 min 2.5% B; 2.5 min 2.5% B; 8 min 23% B; 10 min 80% B; 11 min 80%; 12 min 2.5% B; 12.5 min 0% B. The column oven was set to 40° C. and autosampler was maintained at 10° C. Standard injection volume was 1 μl. Capillary voltage was set at 3.5 kV and nitrogen gas was used as nebulizing (20 psig), drying (13 l/min, 225° C.) and sheath gas (12 l/min, 400° C.). […] The scan range for MS and MS/MS data is 100-1000 m/z and 50-1000 m/z respectively. Collision energy used for MS/MS fragmentation was 35 eV.
# Unless noted otherwise, all LC-MS assays were carried out at 30° C. in reaction buffer consisting of 50 mM TES-KOH pH 6.8, 10 mM MgCl2. 0.5 mM ADP, 0.15 mM ThDP.
# In reaction buffer, 1 mM formyl-CoA and 10 mM aldehyde (formaldehyde, acetaldehyde, glycolaldehyde, propionaldehyde, glyceraldehyde, glyoxylate, succinic semialdehyde, benzaldehyde, phenylacetaldehyde, and acetone) was mixed with 5 μM OXCMe or HACLHs. The reaction was stopped after 1 h and products analyzed with the CoA ester method described above.
# YciA = target: T2, YciA (Escherichia coli, UniProt P0A8Z0); experiment: YciA substrate screen (thioesterase activity towards oxalyl-CoA, formyl-CoA, mandelyl-CoA); format: biochemical, E. coli; settings: 2 μM YciA, 0.5 mM CoA ester, 30° C., pH 6.8
# T2 construct: His-tag (ASKA clone); made in house; host or cells: E. coli BL21 (DE3)
# Method: 0.5 mM ADP, 0.15 mM ThDP and 25 mM benzaldehyde, 2 μM YciA (A) or no YciA (B). The reaction was started by adding either 0.5 mM formyl-CoA or 0.5 mM oxalyl-CoA or 0.5 mM mandelyl-CoA. Samples were taken after 0, 1, 5 and 30 minutes and analyzed with the LC-MS detection of CoA esters. CoA esters were quantified by comparison to synthetic standards of formyl-CoA, oxalyl-CoA and mandelyl-CoA, respectively. Error bars show standard deviation of two.
# Thioesterase activity of YciA towards oxalyl-CoA, formyl-CoA and racemic mandelyl-CoA. […] 0.5 mM ADP, 0.15 mM ThDP and 25 mM benzaldehyde, 2 μM YciA (A) or no YciA (B). The reaction was started by adding either 0.5 mM formyl-CoA or 0.5 mM oxalyl-CoA or 0.5 mM mandelyl-CoA. Samples were taken after 0, 1, 5 and 30 minutes and analyzed with the LC-MS detection of CoA esters. CoA esters were quantified by comparison to synthetic standards of formyl-CoA, oxalyl-CoA and mandelyl-CoA, respectively.
# T1 sequence (Q9UJ83 whole entry): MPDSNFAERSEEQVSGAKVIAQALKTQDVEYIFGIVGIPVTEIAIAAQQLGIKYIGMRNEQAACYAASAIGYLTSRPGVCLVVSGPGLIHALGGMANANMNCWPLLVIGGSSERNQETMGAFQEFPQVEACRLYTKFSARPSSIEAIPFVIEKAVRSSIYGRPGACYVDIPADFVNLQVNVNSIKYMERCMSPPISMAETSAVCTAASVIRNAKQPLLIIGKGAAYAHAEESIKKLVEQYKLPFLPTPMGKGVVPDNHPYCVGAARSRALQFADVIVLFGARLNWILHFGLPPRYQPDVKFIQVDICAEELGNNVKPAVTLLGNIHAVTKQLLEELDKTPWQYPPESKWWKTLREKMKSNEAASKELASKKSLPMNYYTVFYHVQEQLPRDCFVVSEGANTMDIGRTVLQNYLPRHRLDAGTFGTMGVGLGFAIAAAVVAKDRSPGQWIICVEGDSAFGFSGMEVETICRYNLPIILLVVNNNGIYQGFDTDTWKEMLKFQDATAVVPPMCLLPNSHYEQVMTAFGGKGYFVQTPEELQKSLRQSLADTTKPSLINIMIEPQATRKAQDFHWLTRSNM
# T2 sequence (P0A8Z0 whole entry): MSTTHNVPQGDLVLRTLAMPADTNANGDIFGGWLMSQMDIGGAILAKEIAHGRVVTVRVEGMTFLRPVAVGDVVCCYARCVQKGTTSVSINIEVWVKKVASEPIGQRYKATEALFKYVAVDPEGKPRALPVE
Compound,Conversion [%] [1],increase of product formation rate by addition of FRC [2],HACLHs relative activity (HACLHs),OXCMe relative activity (OXCMe),thioesterase activity of YciA towards the CoA ester (YciA)
O=C(O)C(O)Cc1ccccc1 (racemic) [3-phenyllactic acid],58%,2.3 fold,–,–,–
O=C(O)C(O)c1ccc(Cl)cc1 (racemic) [4-chloromandelic acid],57%,–,–,–,–
"O=C(O)[C@@H](O)c1ccccc1Cl [2-chloromandelic acid, (S)-2-chloromandelic acid]",93%,–,–,–,–
CCC(O)C(=O)SCCNC(=O)CCNC(=O)[C@H](O)C(C)(C)COP(=O)(O)OP(=O)(O)OC[C@H]1O[C@@H](n2cnc3c(N)ncnc32)[C@H](O)[C@@H]1OP(=O)(O)O (some centres unmarked) [2-hydroxybutyryl-CoA],–,–,100%,5%,–
CC(C)(COP(=O)(O)OP(=O)(O)OC[C@H]1O[C@@H](n2cnc3c(N)ncnc32)[C@H](O)[C@@H]1OP(=O)(O)O)[C@@H](O)C(=O)NCCC(=O)NCCSC(=O)C(O)CCC(=O)O (some centres unmarked) [2-hydroxyglutaryl-CoA],–,–,100%,1%,–
CC(C)(COP(=O)(O)OP(=O)(O)OC[C@H]1O[C@@H](n2cnc3c(N)ncnc32)[C@H](O)[C@@H]1OP(=O)(O)O)[C@@H](O)C(=O)NCCC(=O)NCCSC=O [formyl-CoA],–,–,–,–,low activity
CC(C)(COP(=O)(O)OP(=O)(O)OC[C@H]1O[C@@H](n2cnc3c(N)ncnc32)[C@H](O)[C@@H]1OP(=O)(O)O)[C@@H](O)C(=O)NCCC(=O)NCCSC(=O)C(O)CO (some centres unmarked) [glyceryl-CoA],–,–,100%,1%,–
CC(C)(COP(=O)(O)OP(=O)(O)OC[C@H]1O[C@@H](n2cnc3c(N)ncnc32)[C@H](O)[C@@H]1OP(=O)(O)O)[C@@H](O)C(=O)NCCC(=O)NCCSC(=O)CO [glycolyl-CoA],–,–,11%,100%,–
CC(O)C(=O)SCCNC(=O)CCNC(=O)[C@H](O)C(C)(C)COP(=O)(O)OP(=O)(O)OC[C@H]1O[C@@H](n2cnc3c(N)ncnc32)[C@H](O)[C@@H]1OP(=O)(O)O (some centres unmarked) [lactyl-CoA],–,–,100%,74%,–
O=C(O)C(O)c1ccccc1 (centres unmarked) [mandelic acid],75%,1.4 fold,–,–,–
CC(C)(COP(=O)(O)OP(=O)(O)OC[C@H]1O[C@@H](n2cnc3c(N)ncnc32)[C@H](O)[C@@H]1OP(=O)(O)O)[C@@H](O)C(=O)NCCC(=O)NCCSC(=O)C(O)c1ccccc1 (some centres unmarked) [mandelyl-CoA],–,–,3%,100%,relatively high
CC(C)(COP(=O)(O)OP(=O)(O)OC[C@H]1O[C@@H](n2cnc3c(N)ncnc32)[C@H](O)[C@@H]1OP(=O)(O)O)[C@@H](O)C(=O)NCCC(=O)NCCSC(=O)C(=O)O [oxalyl-CoA],–,–,–,–,no activity
CC(C)(COP(=O)(O)OP(=O)(O)OCC1OC(n2cnc3c(N)ncnc32)C(O)C1OP(=O)(O)O)C(O)C(=O)NCCC(=O)NCCSC(=O)C(O)Cc1ccccc1 (centres unmarked) [phenyllactyl-CoA],–,–,100%,22%,–
